Data taken from patent US7833983B2, “Analytical method and kit thereof” (Phadia, AB, priority 2003, dated 2010).
Several values for one entry are separate records, joined by “and”; a condition that tells them apart may be missing. Equal values may be shown once. Non-standard residues stand in square brackets, D forms with d. No end group written: not given here. Arg(Me2s) = CN=C(NC)NCCC[C@H](N)C(=O)O

Tested on: anti-S33 antibodies
Assay: S33-peptide ELISA (Varelisa protocol) with patient and control sera
Format: binding, human
Source text: Sera (n=628) were collected from patients suffering from systemic lupus erytlhrematosus (SLE; n=176), rheumatoid arthritis (RA, n=86), Sjögren syndrome (SS, n=24); mixed connective tissue disease (MCTD, n=26), scleroderma (SSc, n=26) and polymyositis/dermatomyositis (PM/DM, n=13). All patients were classified according to the ACR-criteria for each disease (Tan et al., 1982; Arnett et al., 1988). To further assess the assay specificity, we analyzed a group of sera from patients with infection diseases (n=77) including hepatitis-C (HCV; n=30), cytomegalo (CMV; n=22) and Epstein-Barr Virus (EBV; n=25) as well as from 192 healthy blood donors. All sera were stored at −80° C. until use. For epitope-mapping a panel of five sera containing anti-Sm antibodies was used. As negative controls autoimmune sera with other antibody specificities than anti-Sm were selected.
Preparation of ELISA-plates. The lyophilized S33 peptide was used to prepare a stock solution of 10 μg/μl, which was stored in aliquots at −20° C. until use. Binding of the peptide to ELISA plates was carried out using 2.5 μg/ml of the peptide in coating buffer in a final volume of 120 μl per well. The coating procedure was carried out at 15° C. for 20 h. Unspecific binding sites were blocked with blocking solution. After discarding the blocking solution solid phases were dried at 37° C. for 2 h and sealed.
The assay was performed according to the general protocol of the Varelisa® system (Pharmacia Diagnostics, Freiburg). […] The cut-off was technically set to 13 U/ml after ROC-analysis. PPVs and NPVs were calculated at different cut-off values. […]
A 15 amino acid soluble peptide displaying highest sensitivity and specificity in the SPOT-assay (^108AARGsdRGRGMGRGNIF^122) (SEQ ID NO: 1) was synthesized for technical reasons with an additional Cys at the C-terminus. This peptide was subsequently used to develop an ELISA system based on the general protocol of the Varelisa® tests (Pharmacia, Freiburg, Germany).

[1] = Rheumatic diseases (181), cut-off 13 U/ml
[2] = randomly selected SLE sera (n = 101)

AARG sdR GRGMGRGNIF (AARG[Arg(Me2s)]GRGMGRGNIF) [S33, SmD3 aa 108-122 mimotope peptide with a single symmetrical dimethylarginine at position 112; ELISA version with additional C-terminal Cys]
Mean value (CMV (22)): 0.8 U/ml
Top value (CMV (22)): 3.2 U/ml
No. of anti-S33-positive sera (CMV (22), cut-off 13 U/ml): 0
Mean value (EBV (25)): 0.78 U/ml
Top value (EBV (25)): 3.3 U/ml
Mean value (HCV (30)): 0.42 U/ml
Top value (HCV (30)): 1.1 U/ml
No. of anti-S33-positive sera (HCV (30), cut-off 13 U/ml): 0
Mean value (Healthy individuals (192)): 2.2 U/ml and 2.21 U/ml
Top value (Healthy individuals (192)): 11.5 U/ml
No. of anti-S33-positive sera (Healthy individuals (192), cut-off 13 U/ml): 0
Mean value (Infectious diseases (77)): 0.67 U/ml
Top value (Infectious diseases (77)): 3.3 U/ml
No. of anti-S33-positive sera (Infectious diseases (77), cut-off 13 U/ml): 0
Mean value (MCTD (26)): 3.1 U/ml
Top value (MCTD (26)): 12.8 U/ml
No. of anti-S33-positive sera (MCTD (26), cut-off 13 U/ml): 0
Mean value (PM/DM (13)): 2.8 U/ml
Top value (PM/DM (13)): 9.6 U/ml
No. of anti-S33-positive sera (PM/DM (13), cut-off 13 U/ml): 0
Mean value (RA (86)): 1.6 U/ml
Top value (RA (86)): 24.6 U/ml
% of anti-S33-positive sera (RA (86), cut-off 13 U/ml): (1.2) %
No. of anti-S33-positive sera (RA (86), cut-off 13 U/ml): 1
Mean value (Rheumatic diseases (181)): 2.2 U/ml
Top value (Rheumatic diseases (181)): 24.6 U/ml
% of anti-S33-positive sera [1]: (0.6) %
No. of anti-S33-positive sera [1]: 1
Mean value (SLE (n = 176)): 43 U/ml and 43.0 U/ml
No. of anti-S33-positive sera (SLE (n = 176), cut-off 13 U/ml): 28 and 15
anti-S33 peptide reactivity (SLE patient #89, anti-SmD negative): 15.4 units
anti-S33 peptide reactivity (SLE patient #92, anti-SmD negative): 21.3 units
anti-S33 peptide reactivity (SLE patient #9811, anti-SmD negative): 13.9 units
anti-S33 peptide reactivity (SLE patient #20627, anti-SmD negative): 41.3 units
immunoresponse to the new Sm antigen (S33) (SLE patient, beginning of the 18 month follow-up study, inactive phase of disease): 337.5 U/ml
Mean value (SSc (26)): 2.4 U/ml
Top value (SSc (26)): 4.3 U/ml
No. of anti-S33-positive sera (SSc (26), cut-off 13 U/ml): 0
reactivity range (blood donors): 0.4-11.5 U/ml
% of control sera tested positive (controls (n=449), cut-off 13 U/ml): 0.2%
Mean value (pSS (24)): 1.9 U/ml
Top value (pSS (24)): 3.9 U/ml
No. of anti-S33-positive sera (pSS (24), cut-off 13 U/ml): 0
S33+ among sera with Aab to La (%) [2]: 18.2%
S33+ among sera with Aab to La (number) [2]: 4/22
S33+ among sera with Aab to Ro-52 (%) [2]: 22.7%
S33+ among sera with Aab to Ro-52 (number) [2]: 5/22
S33+ among sera with Aab to Ro-60 (%) [2]: 25%
S33+ among sera with Aab to Ro-60 (number) [2]: 12/48
S33+ among sera with Aab to SmBB′ (%) [2]: 50%
S33+ among sera with Aab to SmBB′ (number) [2]: 11/22
S33+ among sera with Aab to SmD (%) [2]: 68.8%
S33+ among sera with Aab to SmD (number) [2]: 11/16
S33+ among sera with Aab to U1-68 kD (%) [2]: 50%
S33+ among sera with Aab to U1-A (%) [2]: 48%
S33+ among sera with Aab to U1-A (number) [2]: 12/25
S33+ among sera with Aab to U1-C (%) [2]: 42.3%
S33+ among sera with Aab to U1-C (number) [2]: 11/26
S33+ among sera with Aab to dsDNA (%) [2]: 25.5%
S33+ among sera with Aab to dsDNA (number) [2]: 13/51
S33+ among sera with Aab to histone (%) [2]: 26.3%
S33+ among sera with Aab to histone (number) [2]: 10/38
S33+ among sera with Aab to β2-Glycoprotein (%) [2]: 25%
S33+ among sera with Aab to β2-Glycoprotein (number) [2]: 4/16
